The values that follow come from patent US11098061B2 (Celgene CAR LLC, priority 2013, dated 2021).

For orientation: IC50 means the concentration that gives 50% inhibition.

In assay [1] the target is T1, MK2 (Homo sapiens (Human), UniProt P49137). In words: MK2 cellular assay (Hsp27 phosphorylation in Thp-1 cells). The conditions noted are these: differentiated Thp-1 cells, compound 1 hour, 50 ng/ml LPS 15 minutes, phosphorylation of Hsp27; read-out: MK2EC50. It is filed as cell-based. As for the experimental part:
Compounds were assayed in Thp-1 human acute monocytic leukemia cells to measure inhibition of MK2 activity. Thp-1 were grown in suspension in T225 flasks. Two days prior to assay, Thp-1 cells were spun down, counted and plated at 1×10^6 cells per well of a 12 well plate in complete media containing 10 ng/ml PMA (phorbol myristate acetate) to differentiate the cells. On day of assay, cells were washed with complete media, and compound was added to differentiated Thp-1 cells for 1 hour. Cells were washed again, and complete media containing 50 ng/ml LPS (lipopolysaccharide) was added. After 15 minutes, cells were washed once with PBS and lysed on ice with BioRad Bioplex lysis buffer. 20 μg total protein from lysates were loaded on gel and blots were probed for phosphorylation of the MK2 substrate Hsp27. Dose response inhibition of MK2 signaling in differentiated Thp-1 cells was used to determine the EC50 for compounds reported in Table A in the column entitled “MK2 EC50.”

Assay [2] concerns the target p38a activated, mitogen-activated protein kinase-activated protein kinase 2 (MAPKAP-K2 or MK-2) enzyme (Homo sapiens (Human), UniProt P49137). Put plainly: MK2 Omnia continuous-read kinase assay for compound potency. The following applies: [MK-2]=0.4 nM, [ATP]=1.0 mM, [ST3-Sox]=10 μM. It is filed as biochemical. An excerpt:
The protocol below describes a continuous-read kinase assay optimized to measure potency of compounds against p38a activated, mitogen-activated protein kinase-activated protein kinase 2 (MAPKAP-K2 or MK-2) enzyme. The mechanics of the assay platform are best described by the vendor (Invitrogen, Carlsbad, Calif.) on their website at the following URL: invitrogen.com/search/global/searchAction. action?resultPage=1 &resultsPerPage=15 &query=om nia&personaFilterTerm=Support+%26+Troubleshoot
Kinase reactions were started with the addition of 40 μL of MK-2 enzyme and monitored every 71 seconds for 30-240 minutes at λex360/λem485 in a Synergy^2, Synergy^4 or Synergy H^4 plate reader from BioTek (Winooski, Vt.). […] Initial velocity (0 minutes to +30 minutes) from each reaction was estimated from the slope of a plot of relative fluorescence units vs time (minutes) and normalized to the no enzyme and no inhibitor control groups for % Inhibition. The resulting % Inhibition values were then plotted against inhibitor concentration to estimate IC50 from log[Inhibitor] vs Response, Variable Slope model in GraphPad Prism from GraphPad Software (San Diego, Calif.).
[MK-2]=0.4 nM, [ATP]=1.0 mM and [ST3-Sox]=10 μM (ATP ^appKM=8-10 μM)

Assay [3] has as its target T1, MK2. In words: MK2 modification assessment by whole protein mass spectrometry. The conditions noted are these: intact MK2, 60 min, 10-fold excess of compound to protein. It is filed as binding. As for the experimental part:
Modification of MK2 is measured by whole protein MS analysis. […] 5 μL aliquots of the samples were diluted with 15 μL of 0.2% TFA prior to micro C4 ZipTipping directly onto the MALDI target using sinapinic acid as the desorption matrix (10 mg/ml in 0.1% TFA:Acetonitrile 50:50). Analysis was performed on a AB Sciex 4800 MALDI TOF/TOF retro fitted with an HM2 detector (CovalX). Percent modification of target MK2 (i.e., the percent of total MK2 modified by the test compound) for each compound was calculated by subtracting the centroid mass of the compound treated MK2 from the centroid mass of the control MK2 and dividing that value with the mass of the compound.

Some results are limits rather than exact numbers.

Chain of p38a activated, mitogen-activated protein kinase-activated protein kinase 2 (MAPKAP-K2 or MK-2) enzyme (P49137 whole entry): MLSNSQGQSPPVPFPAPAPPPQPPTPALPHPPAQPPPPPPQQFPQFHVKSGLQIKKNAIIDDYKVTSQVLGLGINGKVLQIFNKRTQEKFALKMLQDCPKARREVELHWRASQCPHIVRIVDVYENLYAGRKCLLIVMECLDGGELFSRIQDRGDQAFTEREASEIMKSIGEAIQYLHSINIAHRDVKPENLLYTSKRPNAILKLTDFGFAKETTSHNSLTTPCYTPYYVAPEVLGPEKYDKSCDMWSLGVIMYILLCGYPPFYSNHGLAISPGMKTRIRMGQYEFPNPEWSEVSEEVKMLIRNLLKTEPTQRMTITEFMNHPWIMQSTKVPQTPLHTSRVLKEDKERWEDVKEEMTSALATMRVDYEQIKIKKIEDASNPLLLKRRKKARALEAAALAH
T1 sequence (P49137 whole entry): as above

Turning to `C=CC(=O)Nc1cc(C)cc(-c2cc3c(ccc4c5c([nH]c43)CCC5=O)cn2)c1` [II-e-22, N-(3-methyl-5-(7-oxo-7,8,9,1-tetrahydrocyclopenta[4,5]pyrrolo[2,3-f]isoquinolin-2-yl)phenyl)acrylamide], the EC50 in assay [1] was 101 to 500 nM. For the same compound, in assay [2], the IC50 fell in the range of 101 to 500 nM.

Turning to `C=CC(=O)N1CCC[C@H](NC(=O)c2ccc3sc4c(c3c2)NC[C@@H](C)NC4=O)C1` [III-41], the EC50 in assay [1] fell in the range of 101 to 500 nM.

`C=CC(=O)Nc1cc(C2CCN(C)CC2)cc2oc(-c3ccc4cc5n(c4c3)C3(CCC3)CNC5=O)nc12` [Compound V-61, N-(6-(1-methylpiperidin-4-yl)-2-(1′-oxo-2′,3′-dihydro-1′H-spiro[cyclobutane-1,4′-pyrazino [1,2-a]indol]-7′-yl)benzo[d]oxazol-4-yl)acrylamide]: the EC50 in assay [1] is less than 100 nM. Further, in assay [2], the IC50 was less than 100 nM. For the same compound, the “MK2 Mass Mod” value in assay [3] is “E (mass modification of ≥70%)”.

As to `C=CC(=O)Nc1cc(C(=O)Nc2cc(-c3cc4c([nH]3)C3(CCCNC3)CNC4=O)ccn2)ccc1OC(F)(F)F` (racemic) [Compound I-23, 3-acrylamido-N-(4-(4′-oxo-1′,4′,5′,6′-tetrahydrospiro[piperidine-3,7′-pyrrolo[3,2-c]pyridin]-2′-yl)pyridin-2-yl)-4-(trifluoromethoxy)benzamide], in assay [1], the EC50 lay in the range of 501 to 999 nM. In addition, in assay [2], the IC50 was less than 100 nM. In addition, the “MK2 Mass Mod” value in assay [3] was “E (mass modification of ≥70%)”.

`C=CC(=O)Nc1cc(-c2ccc3c(ccc4sc5c(c43)NC[C@@H](C)NC5=O)n2)ccc1F` [III-13, (R)—N-(2-fluoro-5-(10-methyl-8-oxo-9,10,11,12-tetrahydro-8H-[1,4]diazepino[5′,6′:4,5]thieno[3,2-f]quinolin-3-yl)phenyl)acrylamide]: the EC50 in assay [1] is less than 100 nM. Besides, the IC50 in assay [2] was less than 100 nM. In addition, in assay [3], the “MK2 Mass Mod” value is “F (mass modification of 31-69%)”.

Consider `C=CC(=O)Nc1cc(-c2ccc3c(ccc4sc5c(c43)NC[C@@H](C)NC5=O)n2)ccc1C1CCN(C)CC1` [III-58, (R)—N-(5-(10-methyl-8-oxo-9,10,11,12-tetrahydro-8H-[1,4]diazepino[5′,6′:4,5]thieno[3,2-f]quinolin-3-yl)-2-(1-methylpiperidin-4-yl)phenyl)acrylamide], for which the EC50 in assay [1] fell in the range of 101 to 500 nM. Further, the IC50 in assay [2] was less than 100 nM. Moreover, in assay [3], the “MK2 Mass Mod” value is reported as “E (mass modification of ≥70%)”.

As for `C=CC(=O)N1CC(C)Oc2ccc(NC(=O)c3ccc4cc5n(c4c3)C3(CCC3)CNC5=O)cc21` (racemic) [Compound V-50, N-(4-acryloyl-2-methyl-3,4-dihydro-2H-benzo[b][1,4]oxazin-6-yl)-1′-oxo-2′,3′-dihydro-1′H-spiro[cyclobutane-1,4′-pyrazino[1,2-a]indole]-7′-carboxamide (racemic)], the EC50 in assay [1] was 101 to 500 nM. For the same compound, the IC50 in assay [2] is less than 100 nM. Also, the “MK2 Mass Mod” value in assay [3] is reported as “E (mass modification of ≥70%)”.

`C=CC(=O)N1CCOc2ccc(NC(=O)c3ccc4sc5c(c4c3)NC[C@@H](C)NC5=O)cc21` [III-11, (R)—N-(4-acryloyl-3,4-dihydro-2H-benzo[b][1,4]oxazin-6-yl)-3-methyl-5-oxo-2,3,4,5-tetrahydro-1H-benzo[4,5]thieno[3,2-e][1,4]diazepine-9-carboxamide]: the EC50 in assay [1] was less than 100 nM. Besides, the IC50 in assay [2] was less than 100 nM. Further, the “MK2 Mass Mod” value in assay [3] is recorded as “E (mass modification of ≥70%)”.

Regarding `C=CC(=O)Nc1cc(-c2cc3c(cn2)CCc2c-3[nH]c3c2C(=O)NCC3)cnc1N1CCN(C)CC1` [II-26, N-(2-(4-methylpiperazin-1-yl)-5-(7-oxo-6,7,8,9,10,11-hexahydro-SH-pyrido[3′,4′:4,5]pyrrolo[2,3-f]isoquinolin-2-yl)pyridin-3-yl)acrylamide], the EC50 in assay [1] was in the range of 101 to 500 nM. Further, the IC50 in assay [2] was less than 100 nM. Moreover, the “MK2 Mass Mod” value in assay [3] is recorded as “E (mass modification of ≥70%)”.

In the case of `C=CC(=O)Nc1cc(-c2cc3c(ccc4c5c([nH]c43)CCC5=O)cn2)ccc1N1CCN(C)CC1` [II-e-4, N-(2-(4-methylpiperazin-1-yl)-5-(7-oxo-7,8,9,10-tetrahydrocyclopenta[4,5]pyrrolo[2,3-f]isoquinolin-2-yl)phenyl)acrylamide], the EC50 in assay [1] is less than 100 nM. Besides, the IC50 in assay [2] is less than 100 nM. For the same compound, the “MK2 Mass Mod” value in assay [3] is on record as “E (mass modification of ≥70%)”.

Take `C=CC(=O)Nc1cc(-c2cc3c(ccc4c5c([nH]c43)CCC5=O)cn2)ccc1N1CCN(C(C)=O)CC1` [II-e-23, N-(2-(4-acetylpiperazin-1-yl)-5-(7-oxo-7,8,9,10-tetrahydrocyclopenta[4,5]pyrrolo[2,3-f]isoquinolin-2-yl)phenyl)acrylamide]: the EC50 in assay [1] was 501 to 999 nM. Also, in assay [2], the IC50 was less than 100 nM. The “MK2 Mass Mod” value in assay [3] is listed as “E (mass modification of ≥70%)”.

On to `C=CS(=O)(=O)N1CCC[C@H](NC(=O)c2ccc3sc4c(c3c2)NC[C@@H](C)NC4=O)C1` [III-43], for which the EC50 in assay [1] was less than 100 nM.

As to `C=CC(=O)N1C[C@H](C)Oc2ccc(NC(=O)c3ccc4sc5c(c4c3)NC[C@@H](C)NC5=O)cc21` [III-53, (R)—N—((S)-4-acryloyl-2-methyl-3,4-dihydro-2H-benzo[b][1,4]oxazin-6-yl)-3-methyl-5-oxo-2,3,4,5-tetrahydro-1H-benzo[4,5]thieno[3,2-e][1,4]diazepine-9-carboxamide], in assay [1], the EC50 is more than 1000 nM. In assay [2], the IC50 was less than 100 nM. The “MK2 Mass Mod” value in assay [3] is reported as “E (mass modification of ≥70%)”.

`C=CC(=O)N1CCOc2ccc(-c3nccc(-c4cc5n(c4)CCNC5=O)n3)cc21` [V-c-3, 7-(2-(4-acryloyl-3,4-dihydro-2H-benzo[b][1,4]oxazin-6-yl)pyrimidin-4-yl)-3,4-dihydropyrrolo[1,2-a]pyrazin-1(2H)-one]: the EC50 in assay [1] is more than 1000 nM. Besides, in assay [2], the IC50 is less than 100 nM. For the same compound, in assay [3], the “MK2 Mass Mod” value is on record as “E (mass modification of ≥70%)”.

Take `C=CC(=O)Nc1cc(-c2ccc3c(ccc4sc5c(c43)NC[C@@H](C)NC5=O)n2)ccc1OC(F)(F)F` [III-45, (R)—N-(5-(10-methyl-8-oxo-9,10,11,12-tetrahydro-8H-[1,4]diazepino[5′,6′:4,5]thieno[3,2-f]quinolin-3-yl)-2-(trifluoromethoxy)phenyl)acrylamide]: the EC50 in assay [1] was less than 100 nM. In assay [2], the IC50 is less than 100 nM.

Regarding `C=CC(=O)N[C@H]1CN(C(=O)c2ccc3cc4n(c3c2)CCNC4=O)CC[C@H]1C` [Compound V-2, N-((3R,4R)-4-methyl-1-(1-oxo-1,2,3,4-tetrahydropyrazino[1,2-a]indole-7-carbonyl)piperidin-3-yl)acrylamide], in assay [2], the IC50 was more than 1000 nM. Also, the “MK2 Mass Mod” value in assay [3] is “G (mass modification ≤30%)”.

Regarding `C=CC(=O)Nc1cc(Nc2c(C)c(NC3CCCNC3)nc3ccnn23)ccc1OCC` (stereo not drawn) [IV-1, N-(2-ethoxy-5-((6-methyl-5-(piperidin-3-ylamino)pyrazolo [1,5-a]pyrimidin-7-yl)amino)phenyl)acrylamide], the IC50 in assay [2] lay in the range of 501 to 999 nM. Further, the “MK2 Mass Mod” value in assay [3] is on record as “G (mass modification ≤30%)”.

As to `C=CC(=O)Nc1cc(NC(=O)c2ccc3sc4c(c3c2)NC[C@@H](C)NC4=O)ccc1C(F)(F)F` [III-57, (R)—N-(3-acrylamido-4-(trifluoromethyl)phenyl)-3-methyl-5-oxo-2,3,4,5-tetrahydro-1H-benzo[4,5]thieno[3,2-e][1,4]diazepine-9-carboxamide], the IC50 in assay [2] is 501 to 999 nM. For the same compound, the “MK2 Mass Mod” value in assay [3] is listed as “G (mass modification ≤30%)”.
